Assay results taken from patent US6008233A, “(1S,2S)-1-(4-hydroxyphenyl)-2-(4- hydroxy-4-phenylipiperidin-1-yl)-1-propanolmethanesulfonate trihydrate” (Pfizer Inc, priority 1998, dated 1999).
Counter-ions that a name gives are not always drawn.

Columns and labels:
[1] = Hygroscopicity at 0%, 52% and 98% controlled relative humidities and under ambient laboratory conditions; format: physicochemical
[2] = Hygroscopicity at ambient conditions of the anhydrous mesylate salt (Table 3); format: physicochemical
From the text: HYGROSCOPICITY AT AMBIENT CONDITIONS OF THE ANHYDROUS MESYLATE SALT

[3] = Equilibration of the anhydrous mesylate in an 81% RH environment; format: physicochemical; settings: equilibrated in an 81% RH environment
From the text: FIG. 1 depicts the X-ray powder diffraction spectrum of the mesylate trihydrate (taken on a Siemens D 5000 diffractometer after equilibration of the anhydrous mesylate at 81% relative humidity ("RH")), expressed as intensity (CPS) versus diffraction angle (two-theta degrees).

[4] = tested on: hippocampal cells; experiment: Neuroprotective activity: glutamate toxicity in cultured fetal rat hippocampal cells (LDH release); format: cell-based; settings: in words
Protocol: The preferred procedure for evaluating the neuroprotective activity of this compound is that described by Ismail A. Shalaby, et al., in J. Pharm. and Experimental Therapeutics, 260, 925 (1992). This article is incorporated herein by reference in its entirety and described below.
Cell culture. […]
Glutamate toxicity. The cultures are assessed for glutamate toxicity 2 to 3 weeks from initial plating. […]
Cell viability is routinely assessed 20 to 24 hours after the excitotoxin exposure by measuring the activity of the cytosolic enzyme LDH. LDH activity is determined from the culture medium of each of the 96 wells of the microtiter plates. […] The 340 nm absorbance of the total reaction mixture for each of the 96 wells is monitored every 5 sec for 2 min by an automated spectrophotometric microtiter plate reader (Molecular Devices; Menlo Park, Calif.). The rate of absorbance is automatically calculated using an IBM SOFTmax program (version 1.01; Molecular Devices) and is used as the index of LDH activity.
Morphological assessment of neuronal viability is determined using phrase contrast microscopy. […] Quantitatively, both culture platings are equally sensitive to glutamate toxicity, and display 2- to 3-fold increases in LDH activity 24 hours after exposure to 0.1 to 1.0 mM glutamate. […]

[5] = tested on: NMDA (N-methyl-D-aspartic acid) receptor; experiment: NMDA receptor antagonist activity; settings: in words
[6] = Bulk stability samples stored in polyethylene bags; format: physicochemical; settings: 40° C./30% RH, 9 months
Protocol: Weight loss was also observed in bulk stability samples stored in polyethylene bags at 40° C./30% RH (>10% of weight was lost in 9 months).

[7] = Stability of crystalline form and shelf life compared to the anhydrous mesylate; format: physicochemical; settings: compared with the corresponding anhydrous salt

For `CC(C(O)c1ccc(O)cc1)N1CCC(O)(c2ccccc2)CC1` (centres unmarked) [anhydrous mesylate], the “re-equilibration to the hydrated form” value ([1]; anhydrous form exposed to higher humidities) was “quickly equilibrated to the hydrated form”, the “% Difference from Initial” value ([2]; 1 hours since initial) was 0.06% and the “% Difference from Prev. Weighing” value ([2]; 1 hours since initial) was 0.06%. The “Weight of Sample” value ([2]; 1 hours since initial) was 0.4977 g, the “% Difference from Initial” value ([2]; 3.5 hours since initial) was 0.06% and the “% Difference from Prev. Weighing” value ([2]; 3.5 hours since initial) was 0.00%. For the same compound, the “Weight of Sample” value ([2]; 3.5 hours since initial) was 0.4977 g, the “% Difference from Initial” value ([2]; 22 hours since initial) was 0.32% and the “% Difference from Prev. Weighing” value ([2]; 22 hours since initial) was 0.26%. The “Weight of Sample” value ([2]; 22 hours since initial) was 0.4990 g, the “% Difference from Initial” value ([2]; 30.5 hours since initial) was 0.56% and the “% Difference from Prev. Weighing” value ([2]; 30.5 hours since initial) was 0.24%. For the same compound, the “Weight of Sample” value ([2]; 30.5 hours since initial) was 0.5002 g, the “% Difference from Initial” value ([2]; 45.5 hours since initial) was 1.93% and the “% Difference from Prev. Weighing” value ([2]; 45.5 hours since initial) was 1.36%. The “Weight of Sample” value ([2]; 45.5 hours since initial) was 0.5070 g, the “% Difference from Initial” value ([2]; 98 hours since initial) was 2.57% and the “% Difference from Prev. Weighing” value ([2]; 98 hours since initial) was 0.63%. The “Weight of Sample” value ([2]; 98 hours since initial) was 0.5102 g, the “% Difference from Initial” value ([2]; 170 hours since initial) was 3.94% and the “% Difference from Prev. Weighing” value ([2]; 170 hours since initial) was 1.33%. For the same compound, the “Weight of Sample” value ([2]; 170 hours since initial) was 0.5170 g, the “% Difference from Initial” value ([2]; 194 hours since initial) was 3.94% and the “% Difference from Prev. Weighing” value ([2]; 194 hours since initial) was 0.00%. The “Weight of Sample” value ([2]; 194 hours since initial) was 0.5170 g, the “% Difference from Initial” value ([2]; 215 hours since initial) was 3.96% and the “% Difference from Prev. Weighing” value ([2]; 215 hours since initial) was 0.02%. For the same compound, the “Weight of Sample” value ([2]; 215 hours since initial) was 0.5171 g, the “% Difference from Initial” value ([2]; 246 hours since initial) was 4.22% and the “% Difference from Prev. Weighing” value ([2]; 246 hours since initial) was 0.25%. The “Weight of Sample” value ([2]; 246 hours since initial) was 0.5184 g, the “% Difference from Initial” value ([2]; 382 hours since initial) was 4.60% and the “% Difference from Prev. Weighing” value ([2]; 382 hours since initial) was 0.37%. The “Weight of Sample” value ([2]; 382 hours since initial) was 0.5203 g, the “% Difference from Initial” value ([2]; 408 hours since initial) was 4.40% and the “% Difference from Prev. Weighing” value ([2]; 408 hours since initial) was -0.19%. For the same compound, the “Weight of Sample” value ([2]; 408 hours since initial) was 0.5193 g, the “% Difference from Initial” value ([2]; 533 hours since initial) was 4.40% and the “% Difference from Prev. Weighing” value ([2]; 533 hours since initial) was 0.00%. The “Weight of Sample” value ([2]; 533 hours since initial) was 0.5193 g, the “Weight of Sample” value ([2]; initial) was 0.4974 g and the “weight gain at ambient conditions” value ([2]; summary in words) was “substantial weight gain”. For the same compound, the “conversion to the mesylate salt trihydrate” value [3] was “will convert to the mesylate salt trihydrate”.
With `C[C@@H]([C@@H](O)c1ccc(O)cc1)N1CCC(O)(c2ccccc2)CC1` [free base, (1S,2S)-1-(4-hydroxyphenyl)-2-(4-hydroxy-4-phenylpiperidin-1-yl)-1-propanol] the neuroprotective activity [4] was “possesses selective neuroprotective activity” and the “activity as NMDA receptor antagonist” value [5] was “exhibit activity as NMDA (N-methyl-D-aspartic acid) receptor antagonists”.
In the case of `CC(C(O)c1ccc(O)cc1)N1CCC(O)(c2ccccc2)CC1` [mesylate salt trihydrate, (1S,2S)-1-(4-hydroxyphenyl)-2-(4-hydroxy-4-phenylpiperidin-1-yl)-1-propanol methanesulfonate trihydrate], the “loss of waters of hydration” value ([1]; 0% RH) is reported as “Loss of waters of hydration is observed”, the weight change ([1]; 52% RH) is reported as “No weight change” and the weight change ([1]; 98% RH) is reported as “No weight change”. For the same compound, the weight change ([1]; ambient laboratory conditions (24-27° C., 31-64% RH's)) was “No weight change”, the “reversibility of weight loss observed at 0% RH” value ([1]; exposure to higher humidities after 0% RH) was “reversible” and the weight lost [6] was > 10%. The “breakdown of the crystal structure” value [7] was “less subject to breakdown of the crystal structure”, the shelf life [7] was “substantially longer shelf life” and the “stability of crystalline form” value [7] was “more stable crystalline form than the corresponding anhydrous salt”. The neuroprotective activity [4] was “possesses selective neuroprotective activity” and the “activity as NMDA receptor antagonist” value [5] was “exhibit activity as NMDA (N-methyl-D-aspartic acid) receptor antagonists”.
